The source made the active and inactive calls. The rule behind the calls is not given here.
Tested on: CCRIS mutagenicity, Ames/micronucleus/aberration tests
Assay: CCRIS mutagenicity studies
[1] = Test System: AMES SALMONELLA TYPHIMURIUM, Strain/Indicator: TA98, Metabolic Activation: NONE, Method: STANDARD PLATE
[2] = Test System: AMES SALMONELLA TYPHIMURIUM, Strain/Indicator: TA100, Metabolic Activation: NONE, Method: STANDARD PLATE

Q: Which results are given for C=CC(=O)OC?
A: mutagenic call (Test System: AMES SALMONELLA TYPHIMURIUM, Strain/Indicator: TA97, Metabolic Activation: HAMSTER, LIVER, S-9, AROCLOR 1254 (10%), Method: PREINCUBATION): inactive; negative; mutagenic call (Test System: AMES SALMONELLA TYPHIMURIUM, Strain/Indicator: TA97, Metabolic Activation: HAMSTER, LIVER, S-9, AROCLOR 1254 (30%), Method: PREINCUBATION): inactive; negative; mutagenic call (Test System: AMES SALMONELLA TYPHIMURIUM, Strain/Indicator: TA97, Metabolic Activation: NONE, Method: PREINCUBATION): inactive; negative; mutagenic call (Test System: AMES SALMONELLA TYPHIMURIUM, Strain/Indicator: TA97, Metabolic Activation: RAT, LIVER, S-9, AROCLOR 1254 (10 OR 30%), Method: PREINCUBATION): inactive; negative; mutagenic call (Test System: AMES SALMONELLA TYPHIMURIUM, Strain/Indicator: TA98, Metabolic Activation: HAMSTER, LIVER, S-9, AROCLOR 1254 (10%), Method: PREINCUBATION): inactive; negative; mutagenic call (Test System: AMES SALMONELLA TYPHIMURIUM, Strain/Indicator: TA98, Metabolic Activation: HAMSTER, LIVER, S-9, AROCLOR 1254 (30%), Method: PREINCUBATION): inactive; negative; mutagenic call (Test System: AMES SALMONELLA TYPHIMURIUM, Strain/Indicator: TA98, Metabolic Activation: NONE, Method: PREINCUBATION): inactive; negative; mutagenic call [1]: inactive; negative; mutagenic call (Test System: AMES SALMONELLA TYPHIMURIUM, Strain/Indicator: TA98, Metabolic Activation: RAT, LIVER, S-9, AROCLOR 1254 (10%), Method: PREINCUBATION): inactive; negative; mutagenic call (Test System: AMES SALMONELLA TYPHIMURIUM, Strain/Indicator: TA98, Metabolic Activation: RAT, LIVER, S-9, AROCLOR 1254 (30%), Method: PREINCUBATION): inactive; negative; mutagenic call (Test System: AMES SALMONELLA TYPHIMURIUM, Strain/Indicator: TA98, Metabolic Activation: RAT, LIVER, S-9, AROCLOR 1254, Method: STANDARD PLATE): inactive; negative; mutagenic call (Test System: AMES SALMONELLA TYPHIMURIUM, Strain/Indicator: TA98, Metabolic Activation: RAT, LIVER, S-9, SODIUM PHENOBARBITAL, Method: STANDARD PLATE): inactive; negative; mutagenic call (Test System: AMES SALMONELLA TYPHIMURIUM, Strain/Indicator: TA100, Metabolic Activation: HAMSTER, LIVER, S-9, AROCLOR 1254 (10%), Method: PREINCUBATION): inactive; negative; mutagenic call (Test System: AMES SALMONELLA TYPHIMURIUM, Strain/Indicator: TA100, Metabolic Activation: HAMSTER, LIVER, S-9, AROCLOR 1254 (30%), Method: PREINCUBATION): inactive; negative; mutagenic call (Test System: AMES SALMONELLA TYPHIMURIUM, Strain/Indicator: TA100, Metabolic Activation: NONE, Method: PREINCUBATION): inactive; negative; mutagenic call [2]: inactive; negative; mutagenic call (Test System: AMES SALMONELLA TYPHIMURIUM, Strain/Indicator: TA100, Metabolic Activation: RAT, LIVER, S-9, AROCLOR 1254 (10 OR 30%), Method: PREINCUBATION): inactive; negative; mutagenic call (Test System: AMES SALMONELLA TYPHIMURIUM, Strain/Indicator: TA100, Metabolic Activation: RAT, LIVER, S-9, AROCLOR 1254, Method: PREINCUBATION): inactive; negative; mutagenic call (Test System: AMES SALMONELLA TYPHIMURIUM, Strain/Indicator: TA100, Metabolic Activation: RAT, LIVER, S-9, AROCLOR 1254, Method: STANDARD PLATE): inactive; negative; mutagenic call (Test System: AMES SALMONELLA TYPHIMURIUM, Strain/Indicator: TA100, Metabolic Activation: RAT, LIVER, S-9, SODIUM PHENOBARBITAL, Method: STANDARD PLATE): inactive; negative; mutagenic call (Test System: AMES SALMONELLA TYPHIMURIUM, Strain/Indicator: TA1535, Metabolic Activation: HAMSTER, LIVER, S-9, AROCLOR 1254 (10%), Method: PREINCUBATION): inactive; negative; mutagenic call (Test System: AMES SALMONELLA TYPHIMURIUM, Strain/Indicator: TA1535, Metabolic Activation: HAMSTER, LIVER, S-9, AROCLOR 1254 (30%), Method: PREINCUBATION): inactive; negative; mutagenic call (Test System: AMES SALMONELLA TYPHIMURIUM, Strain/Indicator: TA1535, Metabolic Activation: NONE, Method: PREINCUBATION): inactive; negative; mutagenic call (Test System: AMES SALMONELLA TYPHIMURIUM, Strain/Indicator: TA1535, Metabolic Activation: NONE, Method: STANDARD PLATE): inactive; negative; mutagenic call (Test System: AMES SALMONELLA TYPHIMURIUM, Strain/Indicator: TA1535, Metabolic Activation: RAT, LIVER, S-9, AROCLOR 1254 (10%), Method: PREINCUBATION): inactive; negative; mutagenic call (Test System: AMES SALMONELLA TYPHIMURIUM, Strain/Indicator: TA1535, Metabolic Activation: RAT, LIVER, S-9, AROCLOR 1254 (30%), Method: PREINCUBATION): inactive; negative; mutagenic call (Test System: AMES SALMONELLA TYPHIMURIUM, Strain/Indicator: TA1535, Metabolic Activation: RAT, LIVER, S-9, AROCLOR 1254, Method: STANDARD PLATE): inactive; negative; mutagenic call (Test System: AMES SALMONELLA TYPHIMURIUM, Strain/Indicator: TA1535, Metabolic Activation: RAT, LIVER, S-9, SODIUM PHENOBARBITAL, Method: STANDARD PLATE): inactive; negative; mutagenic call (Test System: AMES SALMONELLA TYPHIMURIUM, Strain/Indicator: TA1537, Metabolic Activation: HAMSTER, LIVER, S-9, AROCLOR 1254 (10%), Method: PREINCUBATION): inactive; negative; mutagenic call (Test System: AMES SALMONELLA TYPHIMURIUM, Strain/Indicator: TA1537, Metabolic Activation: NONE, Method: PREINCUBATION): inactive; negative; mutagenic call (Test System: AMES SALMONELLA TYPHIMURIUM, Strain/Indicator: TA1537, Metabolic Activation: NONE, Method: STANDARD PLATE): inactive; negative; mutagenic call (Test System: AMES SALMONELLA TYPHIMURIUM, Strain/Indicator: TA1537, Metabolic Activation: RAT, LIVER, S-9, AROCLOR 1254 (10%), Method: PREINCUBATION): inactive; negative; mutagenic call (Test System: AMES SALMONELLA TYPHIMURIUM, Strain/Indicator: TA1537, Metabolic Activation: RAT, LIVER, S-9, AROCLOR 1254, Method: STANDARD PLATE): inactive; negative; mutagenic call (Test System: AMES SALMONELLA TYPHIMURIUM, Strain/Indicator: TA1537, Metabolic Activation: RAT, LIVER, S-9, SODIUM PHENOBARBITAL, Method: STANDARD PLATE): inactive; negative; mutagenic call (Test System: AMES SALMONELLA TYPHIMURIUM, Strain/Indicator: TA1538, Metabolic Activation: NONE, Method: STANDARD PLATE): inactive; negative; mutagenic call (Test System: AMES SALMONELLA TYPHIMURIUM, Strain/Indicator: TA1538, Metabolic Activation: RAT, LIVER, S-9, AROCLOR 1254, Method: STANDARD PLATE): inactive; negative; mutagenic call (Test System: AMES SALMONELLA TYPHIMURIUM, Strain/Indicator: TA1538, Metabolic Activation: RAT, LIVER, S-9, SODIUM PHENOBARBITAL, Method: STANDARD PLATE): inactive; negative; mutagenic call (Test System: CHINESE HAMSTER OVARY, Strain/Indicator: CHO-K1-BH4 (HGPRT)/6-THIOGUANINE, Metabolic Activation: NONE, Method: SUSPENSION/PLATE): active; positive; mutagenic call (Test System: CHINESE HAMSTER OVARY, Strain/Indicator: CHO-K1-BH4 (HGPRT), Metabolic Activation: NONE, Method: SUSPENSION/PLATE): active; positive; mutagenic call (Test System: MOUSE LYMPHOMA, Strain/Indicator: L5178Y (TK+/TK-), Metabolic Activation: RAT, LIVER, S-9, AROCLOR 1254, Method: SUSPENSION/PLATE): active; positive. reevaluation of results: positive

Q: For Cc1c2c(c(CO)c3ccc4ccccc4c13)[C@H](O)[C@@H](O)C=C2, which mutagenic call (Test System: CHINESE HAMSTER V-79, Strain/Indicator: V-79/6-THIOGUANINE, Metabolic Activation: CELL-MEDIATED, Method: STANDARD PLATE) is on record?
A: Its mutagenic call is “active; positive”.

Q: What about the mutagenic call (Test System: CHINESE HAMSTER V-79, Strain/Indicator: V-79/OUABAIN, Metabolic Activation: CELL-MEDIATED, Method: STANDARD PLATE) of the same compound?
A: The mutagenic call was “active; positive”.

Q: For Nc1ncc2[nH]cnc2n1, which mutagenic call [1] is on record?
A: The mutagenic call was “inactive; negative”.

Q: And the mutagenic call [2]?
A: Its mutagenic call is “inactive; negative”.

Q: What about the mutagenic call (Test System: CHINESE HAMSTER V-79, Strain/Indicator: V-79 (HGPRT)/6-THIOGUANINE, Metabolic Activation: NONE, Method: STANDARD PLATE) of the same compound?
A: Its mutagenic call is “active; positive”.

Q: And the mutagenic call (Test System: E. COLI, Strain/Indicator: WP2, Metabolic Activation: NONE, Method: STANDARD PLATE)?
A: The mutagenic call was “active; positive”.

Q: And the mutagenic call (Test System: E. COLI, Strain/Indicator: WP2 UVRA, Metabolic Activation: NONE, Method: STANDARD PLATE)?
A: Its mutagenic call is “active; positive”.

Q: What about the mutagenic call (Test System: MOUSE LYMPHOMA, Strain/Indicator: L5178Y (TK+/TK-), Metabolic Activation: NONE, Method: SUSPENSION/PLATE) of the same compound?
A: The mutagenic call was “active; positive”.

From PubChem BioAssay AID1259407 (Chemical Carcinogenesis Research Information System (CCRIS), 2018)
